Assay results as given in patent publication US11964996B2, “2-alkynylmannose derivative and application thereof” (priority 2020, dated 2024).

Target: T1, FimH proteins (Escherichia coli, UniProt Q1R2J4)
T1 construct: endogenous in cells; host or cells: UPEC strain UTI89 (whole bacteria)
Assay: hemagglutination inhibition (HAI) assay: UPEC UTI89 with guinea pig red blood cells
Format: cell-based, uropathogenic Escherichia coli (UPEC) UTI89
Conditions: read-out: HAI EC90 (minimum concentration for inhibiting hemagglutination)
Procedure: In the present example, the mannose derivatives A1 to A107 that were prepared in Examples 1 to 12 were analyzed in hemagglutination inhibition (HAI) assays to determine inhibitory effects of the compounds on the function/activity of FimH proteins.
1. Preparation of a guinea pig red blood cell solution: an adult guinea pig was anesthetized with ethyl ether, blood was sampled from the heart, placed in an EDTA blood collection tube, and centrifuged at 2,000 rpm for 5 min, serum was removed, the sample was transferred in a centrifuge tube (15 mL), sterilized PBS was added, the sample was centrifuged at 1,500 rpm for 10 min, a supernatant was removed, the sample was transferred in a centrifuge tube (50 mL), PBS was added, the sample was centrifuged at 1,500 rpm for 10 min and repeatedly washed twice, and red blood cells were slightly aspirated into a new centrifuge tube (50 mL) to obtain a 5% guinea pig red blood cell solution.
2. Preparation of a bacteria solution: a UPEC cell line UTI89 was inoculated on a medium plate and cultured in an incubator at 37° C. overnight. Single colonies were picked and inoculated in an LB medium in a sterilized conical flask, and cultured at 37° C. and 170 r/min overnight. When an OD value at 540 nm was about 0.8 on a microplate reader, the bacterial concentration was about 10^8-10^9 cfu/mL, the bacteria solution was centrifuged at 2,000 rpm for 10 min, a supernatant was removed, and 1 mL of bacteria solution was prepared into 0.1 mL of PBS bacteria solution. […] The bacteria and the medium were uniformly mixed by shaking, and reacted in an incubator at 25° C. for about 20-40 min. When the plate was read, the wells in which complete agglutination occurred were used as 4HAU for the hemagglutination titer of the bacteria. For example, if the endpoint titer of hemagglutination is 1:256, the dilution multiple of the 4HAU antigen is 1:64 (256 divided by 4). Bacteria solutions at corresponding concentrations were prepared according to the experimental results.
3. Activity assay: a compound to be tested or a standard product was placed in a 96-well microtest plate, 50 μL of drug at an initial concentration of 200 μM was placed in the first well, and from the second well, 25 μL of PBS was added to each well to dilute the drug in proportion. The drug and the medium in the first well were mixed, 25 μL of mixed drug solution was placed in the second well, the drug solution was diluted in sequence to the last well, and 25 μL of drug solution was removed. 25 μL of bacteria solution was placed in each well of the culture plate containing the diluted drug, and cultured at 37° C. for 40 min. 25 μL of 5% guinea pig red blood cell suspension was placed in each well, and slightly uniformly mixed with the drug, and the plate was placed at 4° C. for about 1 h. When results were determined, the plate was tilted 60°, and whether the red blood cells flowed like teardrops was observed.
Mannosyl proteins are expressed on the surface of red blood cells in a guinea pig, which can bind to FimH proteins of UTI89 to cause hemagglutination. It can be observed with the naked eyes that the red blood cells form film-like agglutination at the bottom of the well, and loose red dots can be seen in the center. The FimH protein inhibitor competitively binds to FimH proteins to inhibit hemagglutination. It can be observed with the naked eyes that all the red blood cells sink and concentrate at the bottom of the well to form dense dots. The minimum concentration for inhibiting hemagglutination is expressed as an EC90 value of a compound. The final concentration of the compound in the first well is 66700 nM, the concentration in the second well is half that in the first well, the concentration in the third well is half that in the second well, and so on. […] A low EC90 value indicates high activity of a compound.

| Structure (SMILES) | EC90 [nM] |
| --- | --- |
| CCC(C)O[C@H]1O[C@H](CO)[C@@H](O)[C@H](O)[C@@]1(O)C#Cc1cccc(OC)c1 (stereo partly drawn) [Compound A58] | 520 |
| CC(n1cc(C#C[C@H]2O[C@H](CO)[C@@H](O)[C@H](O)[C@@]2(O)C#Cc2ccccc2)cn1)C(F)(F)F (stereo partly drawn) [Compound A63] | 16 |
| OC[C@H]1O[C@H](C#Cc2cccc3ccccc23)[C@](O)(C#Cc2ccccc2)[C@@H](O)[C@@H]1O [Compound A29] | 520 |
| OC[C@H]1O[C@H](C#Cc2cnn(-c3ccc(F)cc3)c2)[C@](O)(C#CC2CC2)[C@@H](O)[C@@H]1O [Compound A93] | 2 |
| COc1ccc(-n2cc(C#C[C@H]3O[C@H](CO)[C@@H](O)[C@H](O)[C@@]3(O)C#Cc3cnn(C)c3)cn2)cc1 [Compound A82] | < 0.1 |
| CC(C)C(C)O[C@H]1O[C@H](CO)[C@@H](O)[C@H](O)[C@@]1(O)C#Cc1ccccc1 (stereo partly drawn) [Compound A8] | 260 |
| CO[C@H]1CC[C@H](n2cc(C#C[C@H]3O[C@H](CO)[C@@H](O)[C@H](O)[C@@]3(O)C#Cc3ccccc3)cn2)CC1 [Compound A60] | 2 |
| Cn1cc(C#C[C@@]2(O)[C@@H](C#Cc3cnn(-c4ccc(Cl)cc4)c3)O[C@H](CO)[C@@H](O)[C@@H]2O)cn1 [Compound A74] | 0.13 |
| OC[C@H]1O[C@H](C#Cc2cnn(CC3CC3)c2)[C@](O)(C#Cc2ccccc2)[C@@H](O)[C@@H]1O [Compound A42] | 4 |
| OC[C@H]1O[C@H](C#Cc2cnn(-c3cccc(Cl)c3)c2)[C@](O)(C#Cc2ccccc2)[C@@H](O)[C@@H]1O [Compound A66] | 0.13 |
| OC[C@H]1O[C@H](C#Cc2cnn(-c3ccccc3Cl)c2)[C@](O)(C#CC2CC2)[C@@H](O)[C@@H]1O [Compound A70] | 8 |
| O=c1ccc(C#C[C@H]2O[C@H](CO)[C@@H](O)[C@H](O)[C@@]2(O)C#Cc2ccccc2)cn1C1CCCCC1 [Compound A54] | 4 |
| OC[C@H]1O[C@H](C#Cc2cnn(C3CCC(F)(F)CC3)c2)[C@](O)(C#Cc2ccccc2)[C@@H](O)[C@@H]1O [Compound A53] | 8 |
| OC[C@H]1O[C@H](C#Cc2cnn(-c3ccc(Cl)cc3)c2)[C@](O)(C#Cc2cccnc2)[C@@H](O)[C@@H]1O [Compound A73] | 8 |
| OC[C@H]1O[C@H](C#Cc2cnn([C@H]3CC[C@H](O)CC3)c2)[C@](O)(C#Cc2ccc(F)cc2)[C@@H](O)[C@@H]1O [Compound A76] | 4 |
| OC[C@H]1O[C@H](C#Cc2cnn(-c3ccc(C4CC4)cc3)c2)[C@](O)(C#CC2CC2)[C@@H](O)[C@@H]1O [Compound A105] | 0.13 |
| OC[C@H]1O[C@H](C#Cc2cnn(-c3ccc(Cl)cc3)c2)[C@](O)(C#Cc2ccccc2)[C@@H](O)[C@@H]1O [Compound A67] | 0.13 |
| CNC(=O)c1cccc(-c2ccc(O[C@H]3O[C@H](CO)[C@@H](O)[C@H](O)[C@@]3(O)C#CC3CC3)c(C)c2)c1 [Compound A2] | 16 |
| CC(C)Oc1cccc(C#C[C@@]2(O)[C@@H](C#Cc3ccccc3)O[C@H](CO)[C@@H](O)[C@@H]2O)c1 [Compound A21] | 260 |
| OC[C@H]1O[C@H](C#Cc2cccc(C(F)(F)F)c2)[C@](O)(C#Cc2ccccc2)[C@@H](O)[C@@H]1O [Compound A28] | 260 |
| CCn1cc(C#C[C@@]2(O)[C@@H](C#Cc3cnn(-c4ccc(Cl)cc4)c3)O[C@H](CO)[C@@H](O)[C@@H]2O)cn1 [Compound A78] | < 0.1 |
| N#Cc1ccccc1-n1cc(C#C[C@H]2O[C@H](CO)[C@@H](O)[C@H](O)[C@@]2(O)C#Cc2ccccc2)cn1 [Compound A65] | 64 |
| OC[C@H]1O[C@H](C#Cc2cnn(-c3ccc(O[C@@H]4CCOC4)cc3)c2)[C@](O)(C#CC2CC2)[C@@H](O)[C@@H]1O [Compound A99] | < 0.1 |
| OC[C@H]1O[C@H](C#Cc2cnn(Cc3ccccc3)c2)[C@](O)(C#Cc2ccccc2)[C@@H](O)[C@@H]1O [Compound A43] | 32 |

| Structure (SMILES) | EC90 [nM] |
| --- | --- |
| COc1ccc(-n2cc(C#C[C@H]3O[C@H](CO)[C@@H](O)[C@H](O)[C@@]3(O)C#Cc3ccccc3)cn2)cc1 [Compound A81] | < 0.1 |
| OC[C@H]1O[C@H](OC2CCCC2)[C@](O)(C#Cc2ccccc2)[C@@H](O)[C@@H]1O [Compound A11] | 520 |
| OC[C@H]1O[C@H](C#Cc2cnn([C@H]3CC[C@H](O)CC3)c2)[C@](O)(C#Cc2ccccc2)[C@@H](O)[C@@H]1O [Compound A77] | 2 |
| OC[C@H]1O[C@H](C#Cc2cnn(-c3ccc(F)cc3)c2)[C@](O)(C#Cc2ccccc2)[C@@H](O)[C@@H]1O [Compound A68] | 8 |
| OC[C@H]1O[C@H](C#Cc2cnn(-c3ccccc3Cl)c2)[C@](O)(C#Cc2ccccc2)[C@@H](O)[C@@H]1O [Compound A48] | 1 |
| CC(C)Oc1cccc(C#C[C@H]2O[C@H](CO)[C@@H](O)[C@H](O)[C@@]2(O)C#Cc2ccccc2)c1 [Compound A27] | 130 |
| OC[C@H]1O[C@H](C#Cc2ccccc2)[C@](O)(C#Cc2cccc(C3CC3)c2)[C@@H](O)[C@@H]1O [Compound A20] | 260 |
| OC[C@H]1O[C@H](C#CC2CC2)[C@](O)(C#Cc2ccccc2)[C@@H](O)[C@@H]1O [Compound A16] | 130 |
| OC[C@H]1O[C@H](C#Cc2cnn(-c3ccc(Cl)cc3)c2)[C@](O)(C#CC2CC2)[C@@H](O)[C@@H]1O [Compound A72] | < 0.1 |
| CS(=O)(=O)c1cccc(C#C[C@@]2(O)[C@@H](C#Cc3ccccc3)O[C@H](CO)[C@@H](O)[C@@H]2O)c1 [Compound A22] | 130 |
| CCC#C[C@@]1(O)[C@@H](C#Cc2cnn(-c3ccccc3)c2)O[C@H](CO)[C@@H](O)[C@@H]1O [Compound A87] | 32 |
| OC[C@H]1O[C@H](C#Cc2cnn(C3CCCCC3)c2)[C@](O)(C#Cc2ccccc2)[C@@H](O)[C@@H]1O [Compound A46] | 0.5 |
| Cc1cccc(C#C[C@H]2O[C@H](CO)[C@@H](O)[C@H](O)[C@@]2(O)C#Cc2ccccc2)c1 [Compound A25] | 260 |
| COc1ccc(-n2cc(C#C[C@H]3O[C@H](CO)[C@@H](O)[C@H](O)[C@@]3(O)C#CC3CC3)cn2)cc1 [Compound A97] | < 0.1 |
| OC[C@H]1O[C@H](C#Cc2cnn(-c3ncccc3Cl)c2)[C@](O)(C#Cc2ccccc2)[C@@H](O)[C@@H]1O [Compound A64] | 4 |
| CC(C)n1cc(C#C[C@@]2(O)[C@@H](C#Cc3ccccc3)O[C@H](CO)[C@@H](O)[C@@H]2O)ccc1=O [Compound A23] | 260 |
| Cn1cc(C#C[C@@]2(O)[C@@H](C#Cc3cnn(C4CCCCC4)c3)O[C@H](CO)[C@@H](O)[C@@H]2O)cn1 [Compound A85] | 2 |
| CC(C)n1cc(C#C[C@H]2O[C@H](CO)[C@@H](O)[C@H](O)[C@@]2(O)C#Cc2ccccc2)cn1 [Compound A39] | 8 |
| OC[C@H]1O[C@H](C#Cc2ccc3ccccc3c2)[C@](O)(C#Cc2ccccc2)[C@@H](O)[C@@H]1O [Compound A30] | 1040 |
| Cn1cc(C#C[C@@]2(O)[C@@H](C#Cc3cnn(-c4ccccc4)c3)O[C@H](CO)[C@@H](O)[C@@H]2O)cn1 [Compound A84] | 0.25 |
| OC[C@H]1O[C@H](C#Cc2ccccc2)[C@](O)(C#Cc2cccc3ccccc23)[C@@H](O)[C@@H]1O [Compound A24] | 260 |
| CC(C)n1cc(C#C[C@H]2O[C@H](CO)[C@@H](O)[C@H](O)[C@@]2(O)C#Cc2ccccc2)ccc1=O [Compound A33] | 8 |
| OC[C@H]1O[C@H](C#Cc2cnn(C3CCCOC3)c2)[C@](O)(C#Cc2ccccc2)[C@@H](O)[C@@H]1O (stereo partly drawn) [Compound A51] | 16 |
| Cn1cc(C#C[C@@]2(O)[C@@H](C#Cc3cnn(C4CCC(F)(F)CC4)c3)O[C@H](CO)[C@@H](O)[C@@H]2O)cn1 [Compound A83] | 2 |
